# According to PMC9374667 (Communications Biology, 2022):
# Several values for one entry are separate records, joined by “and”; a condition that tells them apart may be missing. Equal values may be shown once.
# Assays:
# [1] = system: cAMP; experiment: cAMP levels in eWAT of db/db mice (isoproterenol); assay type: in vivo; design: cAMP levels in eWAT (Figure 4l): unit not given here; conditions: for cAMP levels in eWAT: db/db mice, isoproterenol stimulation; for cAMP levels in eWAT (Figure 4l): individual samples 1-6
# Method: (§1) The epididymal adipose tissue was dissected, the fresh adipose tissue was weighed and rapidly rinsed with PBS. The adipose tissue was cut and incubated with isoproterenol (10 μM) for 2 h, and homogenized in a cold cleavage buffer to prepare the adipose tissue homogenate. Then the homogenate was centrifuged at 12,000 × g at 4 °C for 15 min, and the supernatant was collected. For 3T3-L1 adipocytes, the adipocytes were treated with or without 50 ng/ml TNF-α or 3 μg IKKε plasmid or 4 μM siIKKε for 24 h and then treated with or without 10 μM ISO or 10 μM BJ for 24 h. Then the cells were lysed in a petri dish, scraped off, and centrifuged at 12,000 × g at 4 °C for 15 min before the supernatant was collected.
# Glycerol or cAMP content in adipose tissue and 3T3-L1 adipocytes was determined by a glycerol assay kit (Nanjing Jiancheng Bioengineering Institute, Nanjing, China) or a mouse cAMP assay kit (Nanjing Jiancheng Bioengineering Institute, Nanjing, China). And concentrations were further standardized according to protein concentration.
# [2] = system: db/db mice; experiment: Serum ASAT, ALAT, BUN and Cr (toxicity) in db/db mice; assay type: in vivo
# [3] = system: F4/80-positive macrophages; experiment: Immunohistochemical staining of eWAT for F4/80; assay type: in vivo, mice; conditions: for Quantification of immunohistochemical staining: Figure 5k, individual values; for Proportion of F4/80-positive macrophages around adipocytes: db/db mice, epididymal fat pads
# Method: The adipose tissue was fixed overnight in 4% paraformaldehyde, then embedded in paraffin and cut into 5 µm thick slices. Tissue sections were stained with hematoxylin and eosin (H&E). For immunohistochemistry, sections were incubated with primary antibodies against F4/80 (1:100 dilution) diluted in the blocking solution at 4 °C overnight. The tissue sections were then incubated with the horseradish peroxidase (HRP)-conjugated secondary antibody at room temperature for 2 h. Finally, the sections were developed with diaminobenzidine (DAB) and counterstained with hematoxylin. Images were obtained under a microscope. To quantify the F4/80-positive macrophages, two random fields per sample were analyzed by Image J software. The IHC profiler plugin of ImageJ was used to calculate the F4/80 positive area.
# [4] = system: glycerol release; experiment: Glycerol release in eWAT of db/db mice (isoproterenol); assay type: in vivo; design: Glycerol release in eWAT (Figure 4m): unit not given here; conditions: for Release of glycerol in eWAT: db/db mice, isoproterenol stimulation; for Glycerol release in eWAT (Figure 4m): individual samples 1-6
# Method: as §1, with “collected. […]” for “collected. For 3T3-L1 adipocytes, the adipocytes were treated with or without 50 ng/ml TNF-α or 3 μg IKKε plasmid or 4 μM siIKKε for 24 h and then treated with or without 10 μM ISO or 10 μM BJ for 24 h.”, “collected. […] And concentrations were further standardized according to protein concentration.” for “collected.”
# [5] = system: Fasn, Acaca, Lpl, Ucp1, Ppargc1a, Ppargc1b, Elovl3, Cox8b; experiment: qRT-PCR of lipid-metabolism-related genes (eWAT) and thermogenic genes (BAT); assay type: in vivo; conditions: db/db mice; for Expression of lipogenic genes (Fasn, Acaca, Lpl) in eWAT: vs vehicle control
# Description: Total RNA was isolated from 3T3-L1 cells and adipose tissue homogenates using Trizol reagent (Invitrogen, Carlsbad, CA, USA). RNA concentration and purity were examined at 260/280 nm using a nanodrop spectrophotometer (NanoDrop One, Thermo Fisher Scientific, USA). The total RNA was reverse transcribed to cDNA using the EasyScript All-in-One First-Strand cDNA Synthesis SuperMix for qPCR kit (TransGen Biotech, Beijing, China). The quantitative reverse transcription polymerase chain reaction was performed using TransStart Top Green qPCR SuperMix (TransGen Biotech, Beijing, China) and an Applied Biosystems 7500 RealTime PCR System (Life Technologies, USA). Relative expression levels were normalized to gapdh expression and quantified using the 2^-ΔΔCt method. The primers were synthesized by Shanghai Sangon Biotech, and the detailed primer sequences were shown in Supplementary Table 5 in the supplementary materials.
# [6] = system: TNF-α and IL-6; experiment: TNF-α and IL-6 in supernatant of TNF-α induced 3T3-L1 adipocytes (ELISA); assay type: cell-based, Murine; design: levels of TNF-α / levels of IL-6: unit not given here; conditions: for Levels of TNF-α and IL-6 in the supernatant: 3T3-L1 adipocytes treated with TNF-α; for levels of TNF-α: Figure 7e
# Method: We next examined the role of BJ on TNF-α induced inflammation of differentiated 3T3-L1 adipocytes.
# (§2) The serum was collected by centrifugation at 3000 × g at 4 °C for 15 min and stored at −80 °C until analysis. TG, TC, LDL-C, HDL-C, and FFA were routinely tested on a Chemray 240 automatic biochemical analyzer (Chemray 240, Shenzhen, China). Serum levels of mouse adiponectin, interleukin6 (IL-6), tumor necrosis factor-α (TNF-α) were measured using commercial enzyme-linked immunosorbent assay (ELISA) kits (Nanjing Jiancheng Bioengineering Institute, Nanjing, China) and according to the manufacturer’s instructions. The levels of IL-6, TNF-α in 3T3-L1 adipocyte culture supernatant were also detected by ELISA.
# [7] = system: 3T3-L1 adipocytes; experiment: Oil Red O staining and lipid quantification; assay type: cell-based, Murine; conditions: for Oil Red O staining of differentiated 3T3-L1 adipocytes spectrophotometric analysis: Figure 7b, replicates;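 as to Oil Red O staining of differentiated 3T3-L1 adipocytes spectrophotometric analysis: treatment added on day 8 of adipocyte differentiation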
# Method: Meanwhile, we conducted in vitro experiments to validate the role of BJ in adipocytes. […] These findings were similar to the results in vivo.
# Murine 3T3-L1 preadipocytes were the kind gift of Prof. Wenbin Shang and Prof. Xizhong Yu (Nanjing University of Chinese Medicine, China). Cells were cultured in Dulbecco’s modified Eagle’s medium (DMEM) supplemented with 10% (vol/vol) fetal bovine serum (FBS), 1% (vol/vol) penicillin/streptomycin in an incubator at 37 °C and 5% CO2 (until confluent). Two days after the preadipocytes reached 100% confluency (designated day 0), the cells were cultured in DMEM with 10% FBS supplemented with IBMX (0.5 mM final concentration), DEX (1 μM final concentration), and insulin (10 μg/ml final concentration) for 3 days (days 0–3). Then the cells were cultured in a medium containing insulin (10 μg/ml final concentration) for another 3 days (days 3–6).
# Lipid accumulation in differentiated adipocytes was observed by Oil Red O staining. The differentiated 3T3-L1 adipocytes were washed with PBS for 3 times and fixed with 4% paraformaldehyde for 30 min at room temperature. The fixed 3T3-L1 adipocytes were washed with PBS for 3 times and stained with Oil Red O solution at room temperature for 60 min. Stained lipid droplets were photographed and then eluted with 100% isopropanol stained Oil Red O. Finally, the optical density (OD) value of the eluent was measured at 510 nm wavelength with a microplate reader.
# [8] = system: TNF-α and IL-6; experiment: Serum levels of TNF-α and IL-6 (ELISA); assay type: in vivo, mice; design: TNFα / IL-6: unit not given here; conditions: for IL-6: Figure 5i; for Serum TNF-α and IL-6 levels: db/db mice, 5 weeks of treatment
# Method: as §2
# [9] = 150mg/kg, db/db mice, individual animals
smiles,measurement,setting,value
"CC(C)Cc1ccc(C(C)C(=O)[O-])cc1.COc1ccc2cc3[n+](cc2c1OC)CCc1cc2c(cc1-3)OCO2.O.O.O.O [BJ, berberine-ibuprofen]",cAMP levels in eWAT,[1],increased the cAMP levels
same,cAMP levels in eWAT (Figure 4l),[1]; db/db+ISO+BJ 75mg/kg,0.344 (2×) and 0.3396 and 0.3778 and 0.3937 and 0.3516
same,cAMP levels in eWAT (Figure 4l),[1]; db/db+ISO+BJ 150mg/kg,0.3909 and 0.4246 and 0.4135 (2×) and 0.4162 and 0.4061
same,AST,[2]; [9],123.8 U/L
same,"Fasting serum ASAT, ALAT, BUN, and Cr levels","[2]; mouse, in vivo","reduced fasting serum ASAT, ALAT, BUN, and Cr levels"
same,Quantification of immunohistochemical staining,[3]; BJ 75mg/kg,0.9922 and 0.9735 and 1.1881 and 1.5389 and 0.7221 and 0.7355
same,Quantification of immunohistochemical staining,[3]; BJ 150mg/kg,0.2082 and 0.4937 and 0.5395 and 0.2725 and 0.374 and 0.2768
same,Proportion of F4/80-positive macrophages around adipocytes,[3],lower than that of the vehicle-treated db/db mice
same,Release of glycerol in eWAT,[4],promoted the release of glycerol
same,Glycerol release in eWAT (Figure 4m),[4]; db/db+ISO+BJ 75mg/kg,372.977 and 400.82 and 389.008 and 382.258 and 389.852 and 395.758
same,"Expression of brown fat enrichment genes (Ucp1, Ppargc1a, Ppargc1b, Elovl3, Cox8b) in BAT",[5],elevated express
same,"Expression of lipogenic genes (Fasn, Acaca, Lpl) in eWAT",[5],downregulation of lipogenic genes
same,Levels of TNF-α and IL-6 in the supernatant,[6],significantly reduced the levels of TNF-α and IL-6
same,levels of TNF-α,"[6]; TNF-α(50ng/ml)+10μM BJ, replicates",96.425 and 110.916 and 111.046 and 97.6978 and 106.64 and 114.538
same,Oil Red O staining of differentiated 3T3-L1 adipocytes spectrophotometric analysis,[7]; 3μM BJ,0.6023 O.D. and 0.5794 O.D. and 0.5902 O.D. and 0.5901 O.D. and 0.5958 O.D. and 0.5823 O.D.
same,Oil Red O staining of differentiated 3T3-L1 adipocytes spectrophotometric analysis,[7]; 10μM BJ,0.6036 O.D. and 0.5893 O.D. and 0.5433 O.D. and 0.5202 O.D. and 0.5568 O.D. and 0.48 O.D.
same,Accumulation of lipid droplets,"[7]; differentiated 3T3-L1 adipocytes, BJ 3 μM and 10 μM, 24 h, Oil Red O",reduced the accumulation of lipid droplets in 3T3-L1 adipocytes in a dose-dependent manner
same,IL-6,"[8]; BJ 75mg/kg, individual values",26.97 and 31.48 and 28.06 and 26.92 and 26.5 and 27.07
same,IL-6,"[8]; BJ 150mg/kg, individual values",19.1 and 22.16 and 23.89 and 18.97 and 21.55 and 28.79
same,Serum TNF-α and IL-6 levels,[8],significantly lower than those in the vehicle-treated group
"COc1ccc2cc3[n+](cc2c1OC)CCc1cc2c(cc1-3)OCO2 [BBR, Berberine chloride dihydrate]",cAMP levels in eWAT,[1],increased the cAMP levels
same,cAMP levels in eWAT (Figure 4l),[1]; db/db+ISO+BBR 150mg/kg,0.3703 and 0.3189 and 0.32 and 0.3561 and 0.3523 and 0.3716
same,ALT,[2]; [9],86 U/L and 97 U/L and 103 U/L and 92 U/L and 85 U/L
same,AST,[2]; [9],125.4 U/L and 140.1 U/L and 155.9 U/L and 114.8 U/L and 154.6 U/L and 172.8 U/L
same,BUN,[2]; [9],8.17 mmol/L and 9.82 mmol/L and 8.93 mmol/L and 9.15 mmol/L and 9.31 mmol/L and 8.1 mmol/L
same,Cr,[2]; [9],17.7 µmol/L and 16.3 µmol/L and 16.4 µmol/L and 17.9 µmol/L and 17.6 µmol/L
same,"Fasting serum ASAT, ALAT, BUN, and Cr levels","[2]; db/db mice, 5 weeks of treatment, vs vehicle control","reduced fasting serum ASAT, ALAT, BUN, and Cr levels"
same,Quantification of immunohistochemical staining,[3]; BBR 150mg/kg,0.8707 and 0.7836 and 0.9995 and 1.2402 and 1.136 and 0.9532
same,Proportion of F4/80-positive macrophages around adipocytes,[3],lower than that of the vehicle-treated db/db mice
same,Release of glycerol in eWAT,[4],promoted the release of glycerol
same,Glycerol release in eWAT (Figure 4m),[4]; db/db+ISO+BBR 150mg/kg,626.099 and 631.162 and 626.943 and 630.318 and 632.849
same,"Expression of brown fat enrichment genes (Ucp1, Ppargc1a, Ppargc1b, Elovl3, Cox8b) in BAT",[5],elevated express
same,"Expression of lipogenic genes (Fasn, Acaca, Lpl) in eWAT",[5],downregulation of lipogenic genes
same,Levels of TNF-α and IL-6 in the supernatant,[6],significantly reduced the levels of TNF-α and IL-6
same,levels of TNF-α,"[6]; TNF-α(50ng/ml)+10μM BBR, replicates",111.895 and 109.61 and 99.3949 and 99.3623 and 111.275 and 110.361
same,levels of IL-6,"[6]; Figure 7f, TNF-α(50ng/ml)+10μM BBR, replicates",17.4575 and 16.5244 and 17.8031 and 16.7594 and 17.9828 and 16.9875
same,Oil Red O staining of differentiated 3T3-L1 adipocytes spectrophotometric analysis,[7]; 10μM BBR,0.6307 O.D. and 0.6591 O.D. and 0.6319 O.D. and 0.6294 O.D. and 0.6584 O.D. and 0.6194 O.D.
same,IL-6,"[8]; BBR 150mg/kg, individual values",24.23 and 30 and 30.18 and 32.12 and 23.56 and 26.45
same,TNFα,"[8]; Figure 5h, BBR 150mg/kg, individual values",161.97 and 148.57 and 185.98 and 167.03 and 204.23 and 186.47
same,Serum TNF-α and IL-6 levels,[8],significantly lower than those in the vehicle-treated group
